Assay results: the supplement of paper PMC11061612

Tests used:
Assay in all cases: combination Emax (second highest fraction inhibited in the dose matrix, 72 h); higher = more inhibition; extreme values may be limits of the assay
[1] = tested on: NCI-H2087 (Lung Adenocarcinoma)
Method in brief: (§1)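 After 24 hours at 37°C and 5% CO2 in 1536-well plates, cells in DMEM/F12 or RPMI plus 10% FBS received two-drug dose matrices for 72 hours. Viability came from CellTiter-Glo 2.0 luminescence and was scaled as inhibition, anchored at 0 by vehicle wells and at 1 by blank wells. Combination Emax is taken as the second-highest inhibition in the matrix, and Bliss excess as the observed combination effect less EA + EB − EA·EB, with EA and EB the single-agent effects.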

[2] = tested on: DU-4475 (Breast Carcinoma)
Method in brief: as §1

[3] = tested on: COLO-792 (Melanoma)
Method in brief: as §1

[4] = tested on: A2780 (Ovarian Carcinoma)
Method in brief: as §1

[5] = tested on: NCI-H441 (Lung Adenocarcinoma)
Method in brief: as §1

[6] = tested on: IM-9 (Non-Cancerous)
Method in brief: as §1

[7] = tested on: HCC1428 (Breast Carcinoma)
Method in brief: as §1

[8] = tested on: EPLC-272H (Other Solid Carcinomas)
Method in brief: as §1

[9] = tested on: NCI-H1651 (Lung Adenocarcinoma)
Method in brief: as §1

[10] = tested on: MHH-ES-1 (Ewing's Sarcoma)
Method in brief: as §1

[11] = tested on: GCT (Other Solid Carcinomas)
Method in brief: as §1

[12] = tested on: A253 (Head and Neck Carcinoma)
Method in brief: as §1

[13] = tested on: JIMT-1 (Breast Carcinoma)
Method in brief: as §1

[14] = tested on: Jurkat (T-Lymphoblastic Leukemia)
Method in brief: as §1

[15] = tested on: CESS (Acute Myeloid Leukemia)
Method in brief: as §1

[16] = tested on: GA-10 (Burkitt's Lymphoma)
Method in brief: as §1

[17] = tested on: UACC-812 (Breast Carcinoma)
Method in brief: as §1

[18] = tested on: RH-41 (Rhabdomyosarcoma)
Method in brief: as §1

[19] = tested on: CGTH-W-1 (Thyroid Gland Carcinoma)
Method in brief: as §1

[20] = tested on: EB2 (Burkitt's Lymphoma)
Method in brief: as §1

Row | Structure (SMILES) | combination Emax [1] | combination Emax [2] | combination Emax [3] | combination Emax [4] | combination Emax [5] | combination Emax [6] | combination Emax [7] | combination Emax [8] | combination Emax [9] | combination Emax [10] | combination Emax [11] | combination Emax [12] | combination Emax [13] | combination Emax [14] | combination Emax [15] | combination Emax [16] | combination Emax [17] | combination Emax [18] | combination Emax [19] | combination Emax [20]
1 | CCN(CCO)CCCOc1ccc2c(Nc3cc(CC(=O)Nc4cccc(F)c4)[nH]n3)ncnc2c1 [AZD2811] + O=C(c1cc(Cc2n[nH]c(=O)c3ccccc23)ccc1F)N1CCN(C(=O)C2CC2)CC1 [Olaparib] (first compound max 1 µM, 7x7, partner max 10 µM) | 0.163 | 0.576 | 0.374 | 0.717 | 0.227 | 0.981 | 0.218 | 0.204 | 0.248 | 0.76 | 0.328 | 0.25 | 0.0806 | 0.384 | 0.513 | 0.595 | 0.181 | 0.245 | 0.291 | 0.373
2 | Cc1c2c(nn1C)CSCc1cc(n(C)n1)CSc1cc(c3ccccc3c1)OCCCc1c(C(=O)O)n(C)c3c-2c(Cl)ccc13 [AZD5991] + CC1(C)CCC(CN2CCN(c3ccc(C(=O)NS(=O)(=O)c4ccc(NCC5CCOCC5)c([N+](=O)[O-])c4)c(Oc4cnc5[nH]ccc5c4)c3)CC2)=C(c2ccc(Cl)cc2)C1 [Venetoclax] (first compound max 1 µM, 7x7, partner max 1 µM) | 0.153 | 0.447 | 0.997 | 0.817 | 0.214 | 1 | 0.987 | 0.901 | 0.213 | 0.852 | 0.288 | 0.868 | 0.215 | 0.888 | 0.525 | 0.64 | 0.694 | 1 | 0.257 | 0.332
3 | Cn1cnc2c(F)c(Nc3ccc(Br)cc3Cl)c(C(=O)NOCCO)cc21 [Selumetinib] + C[C@@H]1COCCN1C2=NC(=NC(=C2)C3(CC3)[S@](=N)(=O)C)C4=C5C=CNC5=NC=C4 [AZD6738] (first compound max 10 µM, 7x7, partner max 10 µM) | 0.661 | 1 | 0.589 | 0.829 | 0.36 | 0.981 | 0.187 | 0.902 | 0.377 | 0.525 | 0.373 | 0.636 | 0.491 | 0.913 | 0.815 | 0.977 | 0.319 | 0.736 | 0.162 | 0.755
